Data taken from patent US20110237538A1, “TREATMENT OF LYSOSOMAL STORAGE DISORDERS AND OTHER PROTEOSTATIC DISEASES” (SUMMIT CORPORATION PLC, priority 2008, published 2011).

Legend:
beta-glucuronidase = target: T1, beta-glucuronidase (Homo sapiens, UniProt P08236); test: inhibition of beta-glucuronidase (Example 3); format: biochemical
T1 sequence (P08236 23-651): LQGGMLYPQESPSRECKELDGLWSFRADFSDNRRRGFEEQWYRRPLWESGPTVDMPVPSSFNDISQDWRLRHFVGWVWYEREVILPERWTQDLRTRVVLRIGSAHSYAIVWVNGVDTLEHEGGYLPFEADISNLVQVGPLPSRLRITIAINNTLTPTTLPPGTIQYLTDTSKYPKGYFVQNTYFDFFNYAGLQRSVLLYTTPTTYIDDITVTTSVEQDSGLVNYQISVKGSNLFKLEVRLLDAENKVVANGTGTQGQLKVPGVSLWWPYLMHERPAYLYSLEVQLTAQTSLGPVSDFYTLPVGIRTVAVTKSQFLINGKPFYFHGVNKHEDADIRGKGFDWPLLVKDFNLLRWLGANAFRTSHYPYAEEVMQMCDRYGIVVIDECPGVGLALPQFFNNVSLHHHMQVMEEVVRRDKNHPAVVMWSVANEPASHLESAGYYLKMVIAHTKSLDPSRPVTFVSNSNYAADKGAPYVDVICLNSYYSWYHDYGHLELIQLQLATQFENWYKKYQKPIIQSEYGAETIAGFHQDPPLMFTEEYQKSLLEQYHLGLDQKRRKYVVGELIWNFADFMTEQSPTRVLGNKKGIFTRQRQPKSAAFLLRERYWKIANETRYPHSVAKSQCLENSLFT
Text: (§1) This compound, for example, might therefore show therapeutic activity for mucopolysaccharidosis type 1.

[1] = target: T2, wild type (wt) beta-glucocerebrosidase (Homo sapiens, UniProt P04062); test: beta-glucocerebrosidase activity assay in HL60 lysate (4MU-β-D-glc); format: biochemical; conditions: at a concentration of 100 μM, 0.5 mM 4MU-β-D-glc;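 further: fluorometric read-out of 4MU liberated from the substrate (ex 360 nm, em 450 nm) after 37 °C incubation, reaction stopped with sodium carbonate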
T2 construct: The lysates were used as a source for wild type (wt) beta-glucocerebrosidase; endogenous in cells; host or cells: HL60 (ECACC No. 98070106) lysate
T2 sequence (P04062 40-536): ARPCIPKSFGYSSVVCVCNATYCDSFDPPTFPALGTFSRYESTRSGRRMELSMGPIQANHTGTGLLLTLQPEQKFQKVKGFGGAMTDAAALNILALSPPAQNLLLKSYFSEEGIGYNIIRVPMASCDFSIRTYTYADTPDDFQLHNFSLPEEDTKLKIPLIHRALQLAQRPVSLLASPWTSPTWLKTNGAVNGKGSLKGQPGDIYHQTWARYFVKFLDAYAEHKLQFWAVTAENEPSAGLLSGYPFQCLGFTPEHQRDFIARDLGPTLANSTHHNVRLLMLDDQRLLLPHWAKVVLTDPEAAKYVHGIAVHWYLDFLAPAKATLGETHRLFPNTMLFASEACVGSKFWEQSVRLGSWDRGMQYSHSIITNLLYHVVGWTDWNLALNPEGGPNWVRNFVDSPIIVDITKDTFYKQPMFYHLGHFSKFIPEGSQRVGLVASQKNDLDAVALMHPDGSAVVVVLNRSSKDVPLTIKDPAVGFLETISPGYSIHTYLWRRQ

[2] = system: beta-glucocerebrosidase (N370S GM01873, L444P GM08752); test: enzyme enhancement assay, cell based screening for chaperones (Gaucher lymphoblasts); design: species or system human; conditions: Gaucher patient lymphoblasts, dosed 0.3-100 μM, 72 hr; relative to vehicle, normalised against total protein
alpha-galactosidase = test: enzyme enhancement assay, cell based screening for chaperones (Fabry lymphoblasts GM04391); design: species or system human; conditions: Fabry patient lymphoblasts (GM04391), dosed 0.3-100 μM, 72 hr; relative to vehicle
alpha-L-iduronidase = target: T3, alpha-L-iduronidase (Homo sapiens, UniProt P35475); test: inhibition of alpha-L-iduronidase (Example 3); format: biochemical
T3 sequence (P35475 28-653): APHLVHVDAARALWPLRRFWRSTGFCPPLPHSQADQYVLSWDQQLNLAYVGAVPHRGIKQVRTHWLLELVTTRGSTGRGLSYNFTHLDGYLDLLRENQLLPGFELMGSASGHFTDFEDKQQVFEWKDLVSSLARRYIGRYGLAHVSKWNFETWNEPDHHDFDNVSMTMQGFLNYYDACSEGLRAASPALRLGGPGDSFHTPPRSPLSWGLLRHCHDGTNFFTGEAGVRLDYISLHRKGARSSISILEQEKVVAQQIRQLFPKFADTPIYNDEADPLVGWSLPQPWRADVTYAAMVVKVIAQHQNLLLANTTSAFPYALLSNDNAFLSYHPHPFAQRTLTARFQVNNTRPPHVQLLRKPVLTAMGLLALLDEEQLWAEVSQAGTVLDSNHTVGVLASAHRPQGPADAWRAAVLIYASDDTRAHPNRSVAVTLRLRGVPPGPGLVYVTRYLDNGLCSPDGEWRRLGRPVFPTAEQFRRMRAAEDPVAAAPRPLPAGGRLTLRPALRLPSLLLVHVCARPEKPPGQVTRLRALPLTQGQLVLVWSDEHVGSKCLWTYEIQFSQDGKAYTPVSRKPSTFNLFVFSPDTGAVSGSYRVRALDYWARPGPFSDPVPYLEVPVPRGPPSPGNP
Text: as §1

[3] = system: the other 14 glycosidases described in Example 2; test: glycosidase panel of Example 2 (selectivity); format: biochemical
Procedure: The assays were conducted as described by Watson et al. 1997, Phytochemistry 46: 255-259 using p-nitrophenyl-substrates. Assays were carried out in microtitre plates. Enzymes were assayed in 0.1M citric acid/0.2M di-sodium hydrogen phosphate (Mcllvaine) buffers at the optimum pH for the enzyme. All assays were carried out at 20° C. All enzymes and substrates were purchased from Sigma Aldrich Chemicals Limited. The incubation mixture consisted of 10 μl of enzyme solution, 10 μl of the iminosugars solution (made up in deionised water at 5 mM) and 50 μl of the appropriate 5 mM p-nitrophenyl substrate made up in McIlvaine buffer at the optimum pH for the enzyme. The reactions were stopped with 0.4M glycine (pH 10.4) during the exponential phase of the reaction, which was determined at the beginning of the assay using blanks with water, which were incubated for a range of time periods to measure the reaction rate using 5 mM substrate solution. Absorbances were read at 405 nm. Water was substituted for the inhibitors in the blanks. […]

[4] = target: T4, Jack bean α-D-mannosidase (Canavalia ensiformis, UniProt C0HJB3); test: α-mannosidase activity assay with p-nitrophenyl-α-D-mannopyranoside (Example 1); format: biochemical; conditions: Jack Bean α-mannosidase, p-nitrophenyl-α-D-mannopyranoside as the substrate
T4 construct: purchased Sigma M7257
T4 sequence (C0HJB3 1-981): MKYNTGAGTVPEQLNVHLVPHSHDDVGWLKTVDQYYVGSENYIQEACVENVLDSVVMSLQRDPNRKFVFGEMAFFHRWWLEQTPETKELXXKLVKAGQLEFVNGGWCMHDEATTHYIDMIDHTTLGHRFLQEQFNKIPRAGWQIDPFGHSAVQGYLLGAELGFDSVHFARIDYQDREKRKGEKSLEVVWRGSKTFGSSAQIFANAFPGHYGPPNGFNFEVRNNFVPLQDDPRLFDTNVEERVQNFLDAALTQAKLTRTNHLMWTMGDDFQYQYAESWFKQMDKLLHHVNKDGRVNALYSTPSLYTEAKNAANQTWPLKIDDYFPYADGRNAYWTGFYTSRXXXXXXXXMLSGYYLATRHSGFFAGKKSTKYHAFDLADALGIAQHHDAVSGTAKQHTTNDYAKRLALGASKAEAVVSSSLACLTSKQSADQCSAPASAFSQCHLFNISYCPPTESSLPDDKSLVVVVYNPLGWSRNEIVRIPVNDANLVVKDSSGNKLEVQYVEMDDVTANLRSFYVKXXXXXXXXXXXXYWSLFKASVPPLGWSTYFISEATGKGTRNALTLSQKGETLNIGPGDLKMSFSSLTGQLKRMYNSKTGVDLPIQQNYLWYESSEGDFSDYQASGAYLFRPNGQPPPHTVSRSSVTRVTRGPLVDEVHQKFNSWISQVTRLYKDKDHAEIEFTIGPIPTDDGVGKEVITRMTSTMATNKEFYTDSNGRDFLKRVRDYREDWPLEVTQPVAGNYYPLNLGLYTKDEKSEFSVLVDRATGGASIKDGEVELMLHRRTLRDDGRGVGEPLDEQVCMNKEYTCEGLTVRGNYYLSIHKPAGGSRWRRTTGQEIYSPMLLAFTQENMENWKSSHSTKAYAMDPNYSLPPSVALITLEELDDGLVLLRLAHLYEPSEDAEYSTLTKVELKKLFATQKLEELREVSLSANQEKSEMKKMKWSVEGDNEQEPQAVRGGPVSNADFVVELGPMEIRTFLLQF
Procedure: Solutions of 0.2M Mcllvane buffer at pH 4.5 and 5 mM p-nitrophenyl-α-D-mannopyranoside (Sigma, N2127), dissolved in the buffer, were prepared. A solution of Jack bean α-D-mannosidase enzyme (Sigma, M7257, 22 Units/mg, 6.2 mg/ml.) was also prepared at 0.6 Units/ml in the buffer.
The incubation mixture consisted of 10 μl enzyme solution, 10 μl of 1 mg/ml aqueous iminosugar solution and 50 μl of 5 mM substrate made up in buffer at the optimum pH for the enzyme. The reactions were stopped by addition of 70 μl 0.4M glycine (pH 10.4) during the exponential phase of the reaction, which had been determined at the beginning using uninhibited assays in which water replaced inhibitor. Final absorbances were read at 405 nm using a Versamax microplate reader (Molecular Devices). Assays were carried out in triplicate, and the values given are means of the three replicates. Results were expressed as a percentage of uninhibited assays in which water replaced inhibitor.

[5] = target: T5, α-D-galactosidase (green coffee beans) (Coffea arabica, UniProt Q42656); test: glycosidase assay with p-nitrophenyl substrates (Example 2); format: biochemical; conditions: 10 μl of 5 mM iminosugar solution in 70 μl incubation mixture; 20° C.; read-out: Promotion of glycosidase activity: α-D-galactosidase (Green coffee bean)
T5 construct: purchased Sigma Aldrich Chemicals Limited
Procedure: (§2) The assays were conducted as described by Watson et al. 1997, Phytochemistry 46: 255-259 using p-nitrophenyl-substrates. Assays were carried out in microtitre plates. Enzymes were assayed in 0.1M citric acid/0.2M di-sodium hydrogen phosphate (Mcllvaine) buffers at the optimum pH for the enzyme. All assays were carried out at 20° C. All enzymes and substrates were purchased from Sigma Aldrich Chemicals Limited. The incubation mixture consisted of 10 μl of enzyme solution, 10 μl of the iminosugars solution (made up in deionised water at 5 mM) and 50 μl of the appropriate 5 mM p-nitrophenyl substrate made up in McIlvaine buffer at the optimum pH for the enzyme. The reactions were stopped with 0.4M glycine (pH 10.4) during the exponential phase of the reaction, which was determined at the beginning of the assay using blanks with water, which were incubated for a range of time periods to measure the reaction rate using 5 mM substrate solution. Absorbances were read at 405 nm. Water was substituted for the inhibitors in the blanks.
(§3) The glycosidases used were α-D-glucosidase (yeast), α-D-glucosidase (Bacillus sterothermophilus), α-D-glucosidase (rice), amyloglucosidase (Aspergillus niger), β-D-glucosidase (almond), α-D-galactosidase (green coffee beans), β-D-galactosidase (bovine liver), α-L-fucosidase (bovine kidney), α-D-mannosidase (Jack bean), β-D-mannosidase (Cellullomonas fimi), Naringinase (Penicillium decumbens), N-acetyl-β-D-glucosaminidase (Bovine kidney), N-acetyl-β-D-glucosaminidase (Aspergillus oryzae) and N-acetyl-β-D-glucosaminidase (Jack bean)

[6] = system: α-D-glucosidase (Bacillus sterothermophilus); test: as above; format: biochemical; conditions: 10 μl of 5 mM iminosugar solution in 70 μl incubation mixture; 20° C.
Procedure: as §2, §3

[7] = target: T6, α-L-fucosidase (bovine kidney) (Bos taurus, UniProt Q2KIM0); test: as above; format: biochemical; conditions: 10 μl of 5 mM iminosugar solution in 70 μl incubation mixture; 20° C.
T6 construct: purchased Sigma Aldrich Chemicals Limited; host or cells: bovine kidney
T6 sequence (Q2KIM0 23-468): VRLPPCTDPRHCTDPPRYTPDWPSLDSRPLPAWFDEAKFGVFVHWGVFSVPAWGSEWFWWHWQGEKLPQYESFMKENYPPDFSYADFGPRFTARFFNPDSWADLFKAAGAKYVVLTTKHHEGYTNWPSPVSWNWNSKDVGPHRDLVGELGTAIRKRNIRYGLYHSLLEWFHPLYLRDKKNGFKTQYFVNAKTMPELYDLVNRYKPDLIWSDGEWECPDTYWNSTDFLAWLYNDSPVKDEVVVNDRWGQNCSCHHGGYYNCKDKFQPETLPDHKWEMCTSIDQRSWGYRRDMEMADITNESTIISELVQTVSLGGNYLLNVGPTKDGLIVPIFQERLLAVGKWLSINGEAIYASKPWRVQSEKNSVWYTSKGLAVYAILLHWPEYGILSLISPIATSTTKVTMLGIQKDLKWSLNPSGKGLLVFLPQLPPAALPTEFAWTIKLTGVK
Procedure: as §2, §3

T5 sequence (Q42656 16-378): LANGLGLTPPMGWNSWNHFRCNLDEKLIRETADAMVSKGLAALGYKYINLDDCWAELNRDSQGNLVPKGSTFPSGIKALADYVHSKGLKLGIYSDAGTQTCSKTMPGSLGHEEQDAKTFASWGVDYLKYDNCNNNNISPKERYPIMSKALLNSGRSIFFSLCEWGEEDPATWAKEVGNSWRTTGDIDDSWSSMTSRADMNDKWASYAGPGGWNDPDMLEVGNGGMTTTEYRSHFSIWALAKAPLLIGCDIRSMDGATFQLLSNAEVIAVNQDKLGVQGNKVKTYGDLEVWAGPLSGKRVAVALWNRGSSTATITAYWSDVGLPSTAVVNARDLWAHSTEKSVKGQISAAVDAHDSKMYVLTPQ

Compound: O=C(O)[C@H]1NC[C@H](O)[C@@H](O)[C@@H]1O [Compound 7, (2S,3R,4R,5S)-3,4,5-trihydroxypiperidine-2-carboxylic acid]
- inhibition of beta-glucuronidase (in words) (beta-glucuronidase): specific inhibitor

Compound: O[C@@H]1C[C@H]2CC[C@](O)(N2)[C@H]1O [Compound 20, (1R,2S,3R,5R)-8-azabicyclo[3.2.1]octane-1,2,3-triol]
- inhibition at 100 µM [1]: > 50%
- increased enzyme activity (beta-glucocerebrosidase) [2]: > 20%
- increased enzyme activity (alpha-galactosidase) (alpha-galactosidase): > 20%

Compound: O=C(O)[C@@H]1[C@@H](O)[C@H](O)[C@H]2[C@@H](O)CCN21 [Compound 56, (1R,2R,3S,7S,7aR)-1,2,7-trihydroxyhexahydro-1H-pyrrolizine-3-carboxylic acid]
- inhibition of alpha-L-iduronidase (in words) (alpha-L-iduronidase): potently inhibited
- inhibition of the other 14 glycosidases described in Example 2 (in words) [3]: none

Compound: C[C@@]1(O)CN[C@H](CO)[C@@H](O)[C@@H]1O [Compound 201, (2R,3R,4S,5R)-2-(hydroxymethyl)-5-methylpiperidine-3,4,5-triol]
- promotion of the mannosidase activity (in words) [4]: promotion of the mannosidase activity
- increased enzyme activity (beta-glucocerebrosidase) [2]: > 201%
- increased enzyme activity (alpha-galactosidase) (alpha-galactosidase): > 201%

Compound: CCCCCCCCCN1C[C@H](O)[C@H](O)[C@@H]1[C@H](O)[C@H](O)CO [Compound 324, (1S,2R)-1-((2R,3R,4S)-3,4-dihydroxy-1-nonylpyrrolidin-2-yl)propane-1,2,3-triol]
- activation at 714 µM [5]: 42%
- Promotion of glycosidase activity: α-D-glucosidase (Bacillus sterothermophilus) [6]: 150 % increase in absorbance compared to the water controls
- Promotion of glycosidase activity: α-L-fucosidase (Bovine kidney) [7]: 42 % increase in absorbance compared to the water controls
